45 compounds from patent US10894782B2, “Modulators of P97 AAA ATPase activity” (University of Pittsburgh—Of the Commonwealth System of …, priority 2016, dated 2021) can be followed below.

pIC50: −log10 of the molar value.

In the first assay the target is P97 (Homo sapiens (Human), UniProt P55072). The experiment in a line: P97 Biomolgreen ATPase assay, 200 μM ATP.
Chain of P97 (P55072 whole entry): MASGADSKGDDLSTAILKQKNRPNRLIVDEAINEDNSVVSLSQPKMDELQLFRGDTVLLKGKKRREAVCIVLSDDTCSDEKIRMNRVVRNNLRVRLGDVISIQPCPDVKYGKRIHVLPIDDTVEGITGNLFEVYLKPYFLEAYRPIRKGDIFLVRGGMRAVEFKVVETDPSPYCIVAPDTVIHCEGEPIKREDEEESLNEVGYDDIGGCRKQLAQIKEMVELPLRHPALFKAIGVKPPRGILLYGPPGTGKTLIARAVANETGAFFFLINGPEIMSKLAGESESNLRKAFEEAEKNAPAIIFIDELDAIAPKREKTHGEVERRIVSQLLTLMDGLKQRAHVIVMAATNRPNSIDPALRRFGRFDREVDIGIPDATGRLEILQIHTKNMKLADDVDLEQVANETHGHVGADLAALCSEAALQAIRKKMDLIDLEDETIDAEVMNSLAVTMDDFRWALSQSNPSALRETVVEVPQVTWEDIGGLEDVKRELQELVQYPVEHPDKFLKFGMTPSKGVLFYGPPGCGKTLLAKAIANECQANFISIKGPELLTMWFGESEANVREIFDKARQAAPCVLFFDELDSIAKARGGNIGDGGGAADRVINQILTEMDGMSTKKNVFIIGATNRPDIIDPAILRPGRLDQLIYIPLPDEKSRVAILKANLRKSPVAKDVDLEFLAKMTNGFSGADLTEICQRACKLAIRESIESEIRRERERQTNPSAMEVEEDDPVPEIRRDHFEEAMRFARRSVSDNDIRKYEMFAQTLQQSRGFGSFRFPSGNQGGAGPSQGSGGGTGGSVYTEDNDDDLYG
Conditions: not given
In kind it is biochemical.
Take `CCC(=O)NCC#Cc1ccc(OCc2nnc(SCC3CO3)n2-c2cccnc2)cc1C` (stereo not drawn) [Compound 129]: the “P97 Biomolgreen; 200 μM ATP; IC50 (μM)” value is recorded as “not active”.

Still in this assay, the particulars now being: P97 Biomolgreen, IC50 (μM).
On to `[2H]C1([2H])C([2H])([2H])C([2H])([2H])C([2H])(Sc2nnc(COc3ccc(C#CCOC(=O)NC4CCN(C)CC4)c(F)c3)n2-c2cccnc2)C1([2H])[2H]` [Compound 126], for which the midpoint of inhibition, the IC50, lay at 0.016 µM.

Take `[2H]C1([2H])C([2H])([2H])C([2H])([2H])C([2H])(Sc2nnc(COc3ccc(C#CCOC(=O)NC(C)C)c(C)c3)n2-c2cccnc2)C1([2H])[2H]` [Compound 23]: half-maximal inhibition (IC50) was put at 0.032 µM.

As for `[2H]C1([2H])C([2H])([2H])C([2H])([2H])C([2H])(Sc2nnc(COc3ccc(C#CC(O)c4ccccc4)c(C)c3)n2-c2cccnc2)C1([2H])[2H]` (stereo not drawn) [Compound 52], the IC50 (as a rule, the concentration at which inhibition is half-maximal) was determined as 0.55 µM.

The compound `[2H]C1([2H])C([2H])([2H])C([2H])([2H])C([2H])(Sc2nnc(CNc3ccc(C#CCO)c(C)c3)n2-c2cccnc2)C1([2H])[2H]` [Compound 117] showed an IC50 of 0.99 µM.

In turn, `[2H]C1([2H])C([2H])([2H])C([2H])([2H])C([2H])(Sc2nnc(COc3ccc(C#CCOC(=O)NCCN4CCN(C(C)C)CC4)c(C)c3)n2-c2cccnc2)C1([2H])[2H]` [Compound 100] returned a concentration for half-maximal inhibition (IC50) of 0.025 µM.

For `[2H]C1([2H])C([2H])([2H])C([2H])([2H])C([2H])(Sc2nnc(COc3ccc(C#CCOC(=O)NC)c(F)c3)n2-c2cccnc2)C1([2H])[2H]` [Compound 106], the IC50 amounted to 0.02 µM.

Compound `[2H]C([2H])(O)C#Cc1ccc(OCc2nnc(SC3([2H])C([2H])([2H])C([2H])([2H])C([2H])([2H])C3([2H])[2H])n2-c2cccnc2)cc1F` [Compound 109] showed a concentration for half-maximal inhibition (IC50) of 0.03 µM.

For `[2H]C1([2H])C([2H])([2H])C([2H])([2H])C([2H])(Sc2nnc(COc3ccc(C#CCOC(=O)NCC(F)(F)F)c(C)c3)n2-c2cccnc2)C1([2H])[2H]` [Compound 20], the IC50 was 0.034 µM.

Consider `[2H]C1([2H])C([2H])([2H])C([2H])([2H])C([2H])(Sc2nnc(COc3ccc(C#CCOC(=O)NCc4cc(C)on4)c(C)c3)n2-c2cccnc2)C1([2H])[2H]` [Compound 35], for which the half-maximal inhibitory concentration (IC50) stood at 0.064 µM.

Staying with this assay, now noted: read-out: P97 Biomolgreen, IC50.
`Cc1cc(OCc2nnc(SC3C=CCCC3)n2-c2cccnc2)ccc1C#CCNCCN(C)C` (stereo not drawn) [Compound 88]: the pIC50 (commonly the IC50 on a negative log10 scale, so that one unit is a factor of ten) was 7.22.

In the case of `CCC(=O)NCC#Cc1ccc(OCc2nnc(SC3C=CCCC3)n2-c2cccnc2)cc1C` (stereo not drawn) [Compound 94], the pIC50 was 7.52.

On to `Cc1cc(OCc2nnc(SC3C=CCCC3)n2-c2cccnc2)ccc1C#CCOC(=O)NCCN1CCN(C)CC1` (stereo not drawn) [Compound 59], for which the negative-log IC50 (pIC50) is 7.60.

`CN1CCN(CCNC(=O)OCC#Cc2ccc(OCc3nnc(SC4C=CCCC4)n3-c3cccnc3)cc2F)CC1` (stereo not drawn) [Compound 107]: the pIC50 is 7.89.

For the compound `OCC#Cc1ccc(OCc2nnc(SC3C=CCCC3)n2-c2cccnc2)c(F)c1F` (stereo not drawn) [Compound 113], the pIC50 was 7.40.

Regarding `C#Cc1ccc(OCc2nnc(SC3C=CCCC3)n2-c2cccnc2)cc1C` (stereo not drawn) [Compound 127], the pIC50 was 7.42.

Turning to `Cc1cc(OCc2nnc(SC3C=CCCC3)n2-c2cccnc2)ccc1C#CCNC(=O)NCCN1CCN(C(C)C)CC1` (stereo not drawn) [Compound 73], the pIC50 was 7.28.

On to `Cc1cc(OCc2nnc(SC3C=CCCC3)n2-c2cccnc2)ccc1C#CCNS(C)(=O)=O` (stereo not drawn) [Compound 14], for which the pIC50 is 7.46.

Regarding `Cc1cc(OCc2nnc(SC3C=CCCC3)n2-c2cccnc2)ccc1C#CC1(O)COC1` (stereo not drawn) [Compound 34], the pIC50 is 7.01.

For the compound `Cc1cc(OCc2nnc(SC3C=CCCC3)n2-c2cccnc2)ccc1C#CCNS(=O)(=O)C1CCN(C(=O)OC(C)(C)C)CC1` (stereo not drawn) [Compound 78], the negative logarithm of the IC50 (pIC50) was 7.05.

Take `Cc1cc(OCc2nnc(SC3C=CCCC3)n2-c2cccnc2)ccc1C#CCNC(=O)CCl` (stereo not drawn) [Compound 95]: the negative logarithm of the IC50 (pIC50) is 7.52.

Take `Cc1cc(OCc2nnc(SC3C=CCCC3)n2-c2cccnc2)ccc1C#CCNS(=O)(=O)N1CCOCC1` (stereo not drawn) [Compound 63]: the negative-log IC50 (pIC50) is 7.32.

On to `CC(=O)N1CCN(C(=O)OCC#Cc2ccc(OCc3nnc(SC4C=CCCC4)n3-c3cccnc3)cc2C)CC1` (stereo not drawn) [Compound 102], for which the pIC50 was 7.52.

For `Cc1cc(OCc2nnc(CC3CCCC3)n2-c2cccnc2)ccc1C#CCOC(=O)NCCN1CCN(C)CC1` [Compound 69], the pIC50 was 7.18.

On to `Cc1cc(OCc2nnc(SC3C=CCCC3)n2-c2cccnc2)ccc1C#CCNC(C)C` (stereo not drawn) [Compound 16], for which the negative-log IC50 (pIC50) is 7.26.

On to `C=CCSc1nnc(COc2ccc(C#CCNC(=O)CC)c(C)c2)n1-c1cccnc1` [Compound 131], for which the pIC50 is 6.48.

In the case of `COc1cc(C#CCO)c(F)cc1OCc1nnc(SC2C=CCCC2)n1-c1cccnc1` (stereo not drawn) [Compound 116], the negative-log IC50 (pIC50) was 7.40.

`Cc1cc(OCc2nnc(SC3C=CCCC3)n2-c2cccnc2)ccc1C#CCOC(=O)NCCC(=O)N1CCN(C)CC1` (stereo not drawn) [Compound 61]: the pIC50 was 7.54.

Take `Cc1cc(OCc2nnc(SC3C=CCCC3)n2-c2cccnc2)ccc1C#CCNC1CCN(C)CC1` (stereo not drawn) [Compound 19]: the pIC50 is 7.44.

As to `Cc1cc(OCc2nnc(SC3CCCC3)n2-c2cccnc2)ccc1C#CCNC(=O)OC(C)(C)C` [Compound 43], the pIC50 was 7.32.

For the compound `Cc1cc(OCc2nnc(SC3CCCC=C3F)n2-c2cccnc2)ccc1C#CCOC(=O)NCCN1CCN(C)CC1` (stereo not drawn) [Compound 80], the negative-log IC50 (pIC50) was 6.64.

For `C#Cc1ccc(OCc2nnc(SC3CC3)n2-c2cccnc2)cc1C` [Compound 48], the negative-log IC50 (pIC50) was 6.17.

As for `Cc1cc(OCc2nnc(SC3C=CCCC3)n2-c2cccnc2)ccc1C#CC(C)(C)NC(=O)OC(C)(C)C` (stereo not drawn) [Compound 45], the negative-log IC50 (pIC50) is 6.19.

`Cc1cc(OCc2nnc(SC3C=CCCC3)n2-c2cccnc2)ccc1C#CCNC1CCCCC1` (stereo not drawn) [Compound 17]: the pIC50 is 7.40.

Regarding `Cc1cc(OCc2nnc(SC3C=CCCC3)n2-c2cccnc2)ccc1C#CCNS(=O)(=O)N1CCCC1` (stereo not drawn) [Compound 64], the pIC50 was 7.22.

`CN1CCN(CCNC(=O)OCC#Cc2ccc(OCc3nnc(SC4C=CCCC4)n3-c3cccnc3)cc2C(F)(F)F)CC1` (stereo not drawn) [Compound 82]: the negative-log IC50 (pIC50) was 7.37.

Turning to `Cc1cc(OCc2nnc(SC3CCCC3)n2-c2cccnc2)ccc1C#CC#N` [Compound 5], the negative-log IC50 (pIC50) was 7.68.

For `Cc1cc(OCc2nnc(SC3CCCC=C3F)n2-c2cccnc2)ccc1C#CCO` (stereo not drawn) [Compound 74], the pIC50 is 6.29.

In the case of `CCC(=O)NCC#Cc1ccc(OCc2nnc(SC3C=CCCC3)n2-c2cccnc2)cc1C` (stereo not drawn) [Compound 112], the pIC50 was 7.60.

For `Cc1ccc(S(=O)(=O)NCC#Cc2ccc(OCc3nnc(SC4C=CCCC4)n3-c3cccnc3)cc2C)cc1` (stereo not drawn) [Compound 7], the pIC50 was 6.89.

Turning to `Cc1cc(OCc2nnc(SC3CCCC3)n2-c2cccnc2)ccc1C#CCOC(=O)NC(C)C` [Compound 22], the negative-log IC50 (pIC50) is 7.57.

As to `Cc1cc(OCc2nnc(OC3CCCC3)n2-c2cccnc2)ccc1C#CCO` [Compound 99], the pIC50 was 6.74.

Take `Cc1cc(OCc2nnc(SC3C=CCCC3)n2-c2cccnc2)ccc1C#CC(OC(=O)NCCN1CCN(C(C)C)CC1)C(F)(F)F` (stereo not drawn) [Compound 62]: the pIC50 was 6.96.

`C#Cc1ccc(OCc2nnc(SC3CCCC3)n2-c2cccnc2)cc1C` [Compound 2]: the negative-log IC50 (pIC50) is 7.31.

On to `Cc1cc(OCc2nnc(SC3C=CCCC3)n2-c2cccnc2)ccc1C#CCNS(=O)(=O)N1CCN(C)CC1` (stereo not drawn) [Compound 65], for which the negative-log IC50 (pIC50) is 7.33.
